ChEMBL document CHEMBL4052727, “Structure-activity relationship studies on thiaplidiaquinones A and B as novel inhibitors of Plasmodium falciparum and farnesyltransferase” (Bioorg Med Chem, 2017)
≈ marks a conversion by molar mass, not a printed value. Calls of active or inactive are those of the source. The rule behind the calls is not given here.

Columns and labels:
[1] = Inhibition of Trypanosoma brucei recombinant farnesyltransferase using dansyl peptide containing GCAIM as substrate in presence of farnesyl pyrophosphate after 15 mins by fluorescence assay
[2] = tested on: Staphylococcus intermedius; assay: Antibacterial activity against Staphylococcus intermedius isolate 1051997 after 24 hrs by broth microdilution method; format: functional; conditions: isolate 1051997, 24 h
[3] = tested on: Escherichia coli; assay: Antibacterial activity against Escherichia coli ATCC 25922 after 24 hrs by broth microdilution method; format: functional
[4] = tested on: Pseudomonas aeruginosa; assay: Antibacterial activity against Pseudomonas aeruginosa ATCC 27853 after 24 hrs by broth microdilution method; format: functional
[5] = tested on: L6; assay: Cytotoxicity against rat L6 cells after 72 hrs by Alamar blue assay; format: cell-based; conditions: L6, 72 h
[6] = tested on: Plasmodium falciparum; assay: (§1) Antiplasmodial activity against chloroquine-sensitive IEF stage of Plasmodium falciparum NF54 infected in human RBC assessed as reduction in [3H]hypoxanthine incorporation preincubated for 48 hrs followed by [3H]hypoxanthine addition measured after 24 hrs by liquid scintillation counting method; format: functional
[7] = tested on: Staphylococcus aureus; assay: Antibacterial activity against Staphylococcus aureus ATCC 25923 after 24 hrs by broth microdilution method; format: functional; conditions: ATCC 25923, 24 h
[8] = Inhibition of recombinant human farnesyltransferase using dansyl-GCVLS as substrate in presence of farnesyl pyrophosphate after 15 mins by fluorescence assay
[9] = tested on: Plasmodium falciparum; assay: as §1, with “chloroquine-resistant erythrocyte” for “chloroquine-sensitive IEF”, “FcM29-Cameroon” for “NF54”; format: functional
[10] = Selectivity index, ratio of IC50 for rat L6 cells to IC50 for chloroquine-sensitive IEF stage of Plasmodium falciparum NF54 infected in human RBC; format: toxicity; conditions: read-out: Ratio IC50

Compound	IC50 [1] [µM]	MIC [2] [µM]	Activity [3]	Activity [4]	IC50 ([5]; read-out: IC50) [µM]	IC50 [6] [µM]	MIC [7] [µM]	IC50 [8] [µM]	IC50 [5] [µM]	IC50 [9] [µM]	selectivity ratio [10]
CC(C)=CCc1cc2c(cc1O)C1=C(C(=O)C3=C(NCCS3(=O)=O)C1=O)C(C=C(C)C)O2 (stereo not drawn)	> 22	> 200	inactive	inactive	5.2	4.8	> 200	> 22			
CC(C)=CCC/C(C)=C/CC/C(C)=C/C1Oc2ccc(O)cc2C2=C1C(=O)C=CC2=O (stereo not drawn)	3.3	3.12 (≈ 1.31 µg/mL)	inactive	inactive	23.5	7.2	6.25 (≈ 2.62 µg/mL)	1.7			
CSCC[C@H](NC(=O)c1ccc(NC[C@@H](N)CS)cc1-c1ccccc1)C(=O)O	0.01										
CC(C)=CCC/C(C)=C/CC/C(C)=C/C1Oc2c(cc(O)c3c2-c2cc(O)ccc2OC3/C=C(\C)CC/C=C(\C)CCC=C(C)C)C2=C1C(=O)C=CC2=O (stereo not drawn)	1.6	> 200	inactive	inactive	53.2	33.9	> 200	1			
CN[C@@H]1[C@H](O[C@H]2[C@H](O[C@H]3[C@H](O)[C@@H](O)[C@H](N=C(N)N)[C@@H](O)[C@@H]3N=C(N)N)O[C@@H](C)[C@]2(O)C=O)O[C@@H](CO)[C@H](O)[C@H]1O [STREPTOMYCIN]		10.7 (≈ 6.22 µg/mL)					21.5 (≈ 12.5 µg/mL)				
COc1cc([C@@H]2c3cc4c(cc3[C@H](O)[C@H]3COC(=O)[C@H]23)OCO4)cc(OC)c1OC [PODOFILOX]									0.012		
CC(C)=CCC/C(C)=C/Cc1cc2c(cc1O)C1=C(C(=O)C3=C(NCCS3(=O)=O)C1=O)C(/C=C(\C)CCC=C(C)C)O2 (stereo not drawn)	3.04	> 200	inactive	inactive			> 200	1.22		> 17	
COC1=CC(=O)C2=C(C1=O)c1cc(O)ccc1OC2/C=C(\C)CC/C=C(\C)CCC=C(C)C (stereo not drawn)	> 22.3	50 (≈ 22.4 µg/mL)	inactive	inactive	34.3	20.4	25 (≈ 11.2 µg/mL)	> 22.3			
CC(C)=CCC/C(C)=C/Cc1cc2c(cc1O)C1=C(C(=O)C3=C(C1=O)S(=O)(=O)CCN3)C(/C=C(\C)CCC=C(C)C)O2 (stereo not drawn)	0.098	> 200	inactive	inactive			> 200	0.054		4.39	
CC(C)=CCC/C(C)=C/CC/C(C)=C/Cc1cc2c(cc1O)C1=C(C(=O)C3=C(NCCS3(=O)=O)C1=O)C(/C=C(\C)CC/C=C(\C)CCC=C(C)C)O2 (stereo not drawn)	1	> 200	inactive	inactive	25.8	3.4	> 200	0.45			
CC(C)=CCC/C(C)=C/CC/C(C)=C/Cc1cc(O)cc2c1OC(/C=C(\C)CC/C=C(\C)CCC=C(C)C)C1=C2C(=O)C2=C(C1=O)S(=O)(=O)CCN2 (stereo not drawn)	0.35	> 200	inactive	inactive	30.6	4	> 200	0.17			
CC(C)=CCC/C(C)=C/CC/C(C)=C/Cc1cc2c(cc1O)C1=C(C(=O)C3=C(C1=O)S(=O)(=O)CCN3)C(/C=C(\C)CC/C=C(\C)CCC=C(C)C)O2 (stereo not drawn)	5.2	> 200	inactive	inactive	126	7.4	> 200	4.7			17
CC(C)=CCC/C(C)=C/Cc1cc(O)cc2c1OC(/C=C(\C)CCC=C(C)C)C1=C2C(=O)C2=C(NCCS2(=O)=O)C1=O (stereo not drawn)	0.22	> 200	inactive	inactive			> 200	0.14		4.56	
CC(C)=CCc1cc2c(cc1O)C1=C(C(=O)C3=C(C1=O)S(=O)(=O)CCN3)C(C=C(C)C)O2 (stereo not drawn)	2.3	> 200	inactive	inactive	0.4	0.29	> 200	3.1			
CC(C)=CCc1cc(O)cc2c1OC(C=C(C)C)C1=C2C(=O)C2=C(C1=O)S(=O)(=O)CCN2 (stereo not drawn)	> 22	> 200	inactive	inactive	12.8	8	> 200	17.3			
CC(C)=CCC/C(C)=C/CC/C(C)=C/Cc1cc(O)cc2c1OC(/C=C(\C)CC/C=C(\C)CCC=C(C)C)C1=C2C(=O)C2=C(NCCS2(=O)=O)C1=O (stereo not drawn)	2.9	> 200	inactive	inactive	16.7	2.9	> 200	1.5			
CC(C)=CCc1cc(O)cc2c1OC(C=C(C)C)C1=C2C(=O)C2=C(NCCS2(=O)=O)C1=O (stereo not drawn)	19.6	> 200	inactive	inactive	4.2	2	> 200	14.7			
CC(C)=CCC/C(C)=C/Cc1cc(O)cc2c1OC(/C=C(\C)CCC=C(C)C)C1=C2C(=O)C2=C(C1=O)S(=O)(=O)CCN2 (stereo not drawn)	0.74	> 200	inactive	inactive			> 200	0.78		> 17	
O=C(N[C@H](CO)[C@H](O)c1ccc([N+](=O)[O-])cc1)C(Cl)Cl [CHLORAMPHENICOL]		3 to 6 (≈ 0.969 to 1.94 µg/mL)					1.5 to 3 (≈ 0.485 to 0.969 µg/mL)				
